Measured values from patent US20260183411A1, “TARGETING SORTILIN” (priority 2024, published 2026).
Like-named read-outs stand apart in the source and are kept apart here. Where a SMILES comes first, the peptide text is derived from it.

Assay: Murine serum stability assay
Format: in vitro ADME, mouse
Details: cyclic peptides, Table 12, read-out: Murine serum stability assay, T1/2
Description: Serum was drawn from male CD-1 mice by Pharmidex. Lyophilized peptides were solubilized in DMSO and then further diluted into male mouse (CD-1) serum at 37° C. in duplicates. The reaction was incubated at 37° C. and samples extracted at 6 time points: 0, 0.16, 0.5, 1, 3, and 6 hrs. Acetonitrile (ACN) with an internal standard (tolbutamide) was added to stop the incubation. Samples were centrifuged, and the supernatant was analyzed by HPLC-MS/MS for the parent compound.

Structure (SMILES): CC(=O)N[C@@H](CCC(=O)O)C(=O)N[C@@H](Cc1c[nH]c2ccccc12)C(=O)N[C@H]1CSSC[C@@H](C(=O)N[C@@H](CCCNC(=N)N)C(=O)N[C@@H](CCC(N)=O)C(=O)N[C@H](C(=O)N[C@@H](CC(C)(C)C)C(=O)O)C(C)(C)C)NC(=O)[C@H]([C@@H](C)O)NC(=O)[C@@H]2CCCN2C(=O)[C@H](Cc2c[nH]cn2)NC(=O)[C@H](CC(N)=O)NC(=O)[C@H](Cc2c[nH]cn2)NC(=O)[C@H](CC(C)C)NC(=O)CNC1=O [Arb_cyclic_F3]
- half-life (male, CD-1, mouse, mouse serum): 173 min

Structure (SMILES): CC(=O)N[C@@H](CCCNC(=N)N)C(=O)N[C@@H](CC(=O)O)C(=O)N[C@H]1CSSC[C@@H](C(=O)N[C@@H](CCCNC(=N)N)C(=O)N[C@@H](CCC(N)=O)C(=O)N[C@H](C(=O)N[C@@H](CC(C)(C)C)C(=O)O)C(C)(C)C)NC(=O)[C@@H]2CCCN2C(=O)[C@@H]2CCCN2C(=O)[C@H](C)NC(=O)[C@H](CCCNC(=N)N)NC(=O)[C@H](CC(C)C)NC(=O)[C@H](CO)NC(=O)[C@H](C)NC1=O [Arb_cyclic_G2]
- half-life (male, CD-1, mouse, mouse serum): 30.8 min

Structure (SMILES): CCCC[C@H](NC(=O)[C@H](CCCNC(=N)N)NC(C)=O)C(=O)N[C@H]1CSSC[C@@H](C(=O)N[C@@H](CCCNC(=N)N)C(=O)N[C@@H](CCC(N)=O)C(=O)N[C@H](C(=O)N[C@@H](CC(C)(C)C)C(=O)O)C(C)(C)C)NC(=O)[C@H](C)NC(=O)[C@@H]2CCCN2C(=O)[C@H](CO)NC(=O)[C@H](CCCNC(=N)N)NC(=O)[C@H]([C@@H](C)CC)NC(=O)[C@@H]2CCCN2C(=O)CNC1=O [Arb_cyclic_G10]
- half-life (mouse, serum): 11.2 min

Structure (SMILES): CCCC[C@@H]1NC(=O)[C@H](CCCNC(=N)N)NC(=O)[C@H](CCCNC(=N)N)NC(=O)[C@H]([C@@H](C)O)NC(=O)[C@H]([C@@H](C)O)NC(=O)[C@@H](NC(=O)[C@H](CO)NC(=O)[C@H](CCCNC(=N)N)NC(C)=O)CSSC[C@@H](C(=O)N[C@@H](CCCNC(=N)N)C(=O)N[C@@H](CCC(N)=O)C(=O)N[C@H](C(=O)N[C@@H](CC(C)(C)C)C(=O)O)C(C)(C)C)NC(=O)[C@H]([C@@H](C)O)NC(=O)[C@H](C)NC1=O [Arb_cyclic_G14, RSCTTRR(Nle)ATCRQ(B13)(F02)] (HELM PEPTIDE1{[ac].R.S.C.T.T.R.R.[Nle].A.T.C.R.Q.[CC(C)(C)[C@H](N[*:1])C(=O)[*:2]].[CC(C)(C)C[C@H](N[*:1])C(=O)O]}$PEPTIDE1,PEPTIDE1,4:R3-12:R3$$$V2.0)
- half-life (mouse, serum): 50.3 min

Structure (SMILES): CCCC[C@@H]1NC(=O)[C@H](CCCNC(=N)N)NC(=O)[C@H](CCCNC(=N)N)NC(=O)[C@H](CC(N)=O)NC(=O)[C@H](CCC(=O)O)NC(=O)[C@@H](NC(=O)[C@H](Cc2c[nH]c3ccccc23)NC(=O)[C@H](CCCNC(=N)N)NC(C)=O)CSSC[C@@H](C(=O)N[C@@H](CCCNC(=N)N)C(=O)N[C@@H](CCC(N)=O)C(=O)N[C@H](C(=O)N[C@@H](CC(C)(C)C)C(=O)O)C(C)(C)C)NC(=O)[C@H]([C@@H](C)O)NC(=O)[C@H](Cc2ccccc2)NC1=O [Arb_cyclic_G23, RWCENRR(Nle)FTCRQ(B13)(F02)]
- half-life (male, CD-1, mouse, mouse serum): 39.1 min
